Data from US20260216057A1, “PHARMACEUTICAL COMPOSITIONS FOR HERPES VIRUS” (priority 2022, published 2026).

Columns and labels:
[1] = Example 15: Compound 1 solution SC PK study in rat; type: in vivo, male Sprague Dawley rats
Experimental: The LC-MS methodology and conditions used to analyse the helicase-primase inhibitor Compound 1 in rat plasma samples from the sub-cutaneous injection PK study described in Example 15 are provided in Table 8.
A solution of Compound 1 in 90% NMP and 10% Solutol HS15 at a concentration of 50 mg/mL was prepared as follows: • 1) An appropriate amount of crystalline Compound 1 (Form C) was weighed and added to NMP. • 2) After Compound 1 had dissolved, Solutol HS15 was added to the solution and mixed […]. • 3) The final dosing formulation was a clear solution.
Male Sprague Dawley (SD) rats with ~230-250 g body weight (aged 6-8 weeks) were used for the pharmacokinetic study. The animals had free access to food and water. […]
At each time point, approximately 150 μL whole blood was collected in a K2EDTA tube via the jugular vein. Blood samples were put on ice and centrifuged at 2000 g for 5 min to obtain a plasma sample within 15 minutes. Plasma samples were stored at approximately −70° C. until analyzed by LC-MS.

[2] = Example 16: Compound 1 solution SC PK study in dog; type: in vivo, male non-naïve Beagle dogs; details: 10 mg/kg
Experimental: The LC-MS methodology and conditions used to analyse the helicase-primase inhibitor Compound 1 in dog plasma samples from the dog PK study described in Example 16 are given in Table 9.
A solution of Compound 1 in 90% NMP and 10% Solutol HS15 at a concentration of 50 mg/mL was prepared as follows: • 1) An appropriate amount of crystalline Compound 1 (Form C) was weighed and added to NMP. • 2) After Compound 1 had dissolved, Solutol HS15 was added to the solution and mixed. • 3) The final dosing formulation was a clear solution.
A solution of Compound 1 in 90% NMP and 10% Solutol HS15 at a concentration of 100 mg/mL was prepared as follows: • 1) An appropriate amount of crystalline Compound 1 (Form C) was weighed and added to NMP. • 2) After Compound 1 had dissolved, Solutol HS15 was added to the solution and mixed. • 3) The final dosing formulation was a clear solution.
Male non-naïve beagles were used for the dog PK study. The animals had free access to food and water. The prepared 50 mg/mL solution was administered via subcutaneous injection to each animal group (n=3) with a dosing volume of 0.2 mL/kg to achieve a 10 mg/kg dose. […]
At each time point, approximately 0.5 mL of whole blood was collected into K2EDTA tubes. […] Plasma samples were stored at approximately −70° C. until analyzed by LC-MS.

[3] = Injection site observation in Example 10-12 Compound 1 PK studies; type: in vivo, rat, monkey, dog; details: SC Compound 1 depot formulations, Examples 10-12, 3 species
Experimental: The Compound 1 suspension described above was administered via sub-cutaneous injection to each animal group (n=3) with a dosing volume of 3.33 mL/kg to achieve a 10 mg/kg dose.
Male non-naïve Cyno Monkeys with ~4-6 kg body weight were used for the monkey PK study. The animals had free access to food and water. The prepared suspension was administered via subcutaneous injection to each animal group (n=3) with a dosing volume of 3.33 mL/kg to achieve a 10 mg/kg dose.
Male non-naïve beagles with ~10 kg body weight were used for the dog PK study. The animals had free access to food and water. The prepared suspension was administered via subcutaneous injection to each animal group (n=3) with a dosing volume of 2 mL/kg to achieve a 10 mg/kg dose.

[4] = tested on: genital HSV; details: oral, 28 days, cited from earlier work
[5] = Example 4: pritelivir aqueous suspension SC PK study in dog; type: in vivo, male non-naïve Beagle dogs; details: aqueous suspension (dihydrate), 10 mg/kg, following an initial drug burst
Experimental: The LC-MS methodology and conditions used to analyse pritelivir in plasma samples from the PK studies described in Examples 1 to 5 are provided in Table 1.
An aqueous suspension of crystalline pritelivir free base (dihydrate) in a 0.9% NaCl+0.5% poloxamer 188 vehicle at a concentration of 5.0 mg/mL was prepared as follows: • 1) Vehicle (0.9% w/w NaCl and 0.5% w/w poloxamer 188) was prepared by dissolving NaCl and poloxamer 188 in water. • 2) Appropriate amount of crystalline pritelivir free base (dihydrate) was weighed and added to the vehicle. • 3) Mixture was stirred for 15 minutes, then vortexed for 1 minute and then sonicated for 10 minutes. • 4) The final dosing formulation was a homogenous white cloudy suspension.
Male non-naïve beagles were used for the dog PK study. The animals had free access to food and water. The prepared suspension was administered via subcutaneous injection to each animal group (n=3) with a dosing volume of 2 mL/kg to achieve a 10 mg/kg dose.
At each time point, approximately 0.5 mL of whole blood was collected into K2EDTA tubes. Blood samples were put on ice and centrifuged at 2000 g for 5 min to obtain plasma samples within 15 minutes. Plasma samples were stored at approximately −70° C. until analyzed by LC-MS.

[6] = solution in 90% NMP/10% Solutol HS15

SMILES | adverse reactions at the injection sites [1, 6] | variability in plasma concentrations [1, 6] | prolonged exposure for (length of the study) ([1]; solution in 90% NMP/10% Solutol HS15 (50 mg/mL), dose of 50 mg/kg as printed, following an initial drug burst) | adverse reactions at the injection sites ([2]; both solution formulations) | prolonged exposure for (length of the study) ([2]; solutions 50 mg/mL (0.2 mL/kg) and 100 mg/mL (0.1 mL/kg), both formulations) | adverse reactions at the injection sites [3] | rate of genital HSV shedding ([4]; at high doses, vs placebo) | number of days with lesions ([4]; men and women with genital herpes) | plasma exposure after SC administration [5]
Cc1nc(N2CCCN(c3ccc(-c4cc(F)ccc4F)cc3)C2=O)sc1S(N)(=O)=O [Compound 1, 2-(3-(2′,5′-difluoro-[1,1′-biphenyl]-4-yl)-2-oxotetrahydropyrimidin-1(2H)-yl)-4-methylthiazole-5-sulfonamide] | no adverse reactions were observed | low | 960 h | no adverse reactions were observed | at least 60 days | no adverse reactions observed |  |  | 
Cc1nc(N(C)C(=O)Cc2ccc(-c3ccccn3)cc2)sc1S(N)(=O)=O [pritelivir, N-methyl-N-(4-methyl-5-sulfamoyl-1,3-thiazol-2-yl)-2-[4-(pyridin-2-yl)phenyl]acetamide] |  |  |  |  |  |  | reduced the rate of genital HSV shedding | reduced the number of days with lesions | prolonged exposure was achieved
